This test relates to blood pool. Nature of the test: Mouse CEST MR imaging at 4.7T. Format: in vivo. The conditions noted are these: mouse sacrificed 1 minute after injection, ~0.6 mmol Eu(II)/kg, saturation at -52 ppm vs +52 ppm. The procedure:
Data was recorded at 4.7T on Bruker MR imager in a mouse sacrificed 1 minute after injection of Eu-polyLysine CEST (Example 4a) compound in water at a ˜0.6 mmol Eu(II)/kg dose (saturation pulse with a power of ˜25 μT for 2.0 s using 1000 Gauss pulses of 2 ms each).
Reference tubes contain from left to right: water, compound at 10 mM Eu(III) concentration, compound at 50 mM Eu(III) concentration and, Magnevist at a concentration such that T1˜1s.

Regarding “polylysine conjugate with the europium complex of 1,4,7,10-tetra-[N-(carboxymethyl)-carbamoyl-methyl]1,4,7,10-tetraaza-cyclododecane [Example 4a]”, the “contrast in digital difference axial image (control minus CEST image)” value is “contrast enhancement in the blood pool”.

The values above are taken from patent publication US20060275217A1, “Chemical exchange saturation transfer contrast agents” (priority 2005, published 2006).
